Read-outs that look alike come from different tables or passages of the source.
How the values were obtained:
TSPO [1] = target: T1, TSPO (Homo sapiens, UniProt P30536, T147A); assay: biochemical
Protocol: (§1) Membrane protein was prepared from human platelets obtained from 4 donor whole blood samples. […] Platelet pellets were homogenized in 10 ml buffer 1 (0.32 mM sucrose, 5 mM Tris base, 1 mM MgCl2, pH 7.4, 4° C.). The homogenates were centrifuged at 48,000×g for 15 minutes at 4° C. in a Beckman J2-MC centrifuge. The supernatant was removed and pellets were re-suspended in at least 10 ml buffer 2 (50 mM Tris base, 1 mM MgCl2, pH 7.4, 4° C.) and washed by centrifugation at 48,000×g for 15 mM at 4° C. in buffer 2. Membranes were suspended in 2 ml buffer 2 and the protein concentration was determined using Protein Assay Kit II (Bio Rad cat #500-0002). Aliquots were stored at −80° C. until use.
(§2) Aliquots of membrane suspension were thawed and homogenized with assay buffer 3 (50 mM Tris base, 140 mM NaCl, 1.5 mM MgCl2, 5 mM KCl, 1.5 mM CaCl2, pH 7.4, 37° C.). […] GE180 was diluted at 11 serial dilutions ranging from 100 μM to 1 nM. Total and nonspecific binding assessments were also performed. 160 μL of platelet membranes diluted to 30 μg/mL were added to the assay plate for a final volume of 200 μL/well. Assay plates were incubated at 37° C. for at least one hour with termination of incubation by filtering onto GF/B glass fiber plates (Perkin Elmer; cat #6005177) pre-soaked in 0.1% PEI in saline for 60 minutes. Assay plates were rinsed five to six times with ice cold buffer 4 (50 mM Tris Base, 1.4 mM MgCl2, pH 7.4, 4° C.) on a Perkin Elmer Filtermate 196. Plates were then dried, the bottoms sealed, and 50 μL of MicroScint 20 (Perkin Elmer cat #6013621) was added to each well. After sealing the tops, the plates were allowed to equilibrate for at least 30 minutes and the captured radioactivity was counted on a Perkin Elmer TopCount NTX.

TSPO [2] = target: T2, TSPO (Homo sapiens, UniProt P30536); assay: biochemical
Protocol: as §1, §2

TSPO [3] = settings: ratio of low affinity site to high affinity site; racemates
Protocol: as §1, §2

TSPO [4] = settings: ratio of low affinity site to high affinity site; resolved enantiomers
Protocol: (§3) Membrane protein was prepared from human platelets obtained from 4 donor whole blood samples. Two of these donor samples were previously identified as having high affinity and 2 identified as having low affinity based on PBR28 binding affinity. Platelet pellets were homogenized in 10 ml buffer 1 (0.32 mM sucrose, 5 mM Tris base, 1 mM MgCl2, pH 7.4, 4° C.). The homogenates were centrifuged at 48,000×g for 15 minutes at 4° C. in a Beckman J2-MC centrifuge. The supernatant was removed and pellets were re-suspended in at least 10 ml buffer 2 (50 mM Tris base, 1 mM MgCl2, pH 7.4, 4° C.) and washed by centrifugation at 48,000×g for 15 mM at 4° C. in buffer 2. Membranes were suspended in 2 ml buffer 2 and the protein concentration was determined using Protein Assay Kit II (Bio Rad cat #500-0002). Aliquots were stored at −80° C. until use.
(§4) Aliquots of membrane suspension were thawed and homogenized with assay buffer 3 (50 mM Tris base, 140 mM NaCl, 1.5 mM MgCl2, 5 mM KCl, 1.5 mM CaCl2, pH 7.4, 37° C.). […] Compound 1 was diluted on a Beckman Biomek 2000 workstation at 11 serial dilutions ranging from 1 μM to 0.01 nM. GE180 was diluted at 11 serial dilutions ranging from 100 μM to 1 nM. Total and nonspecific binding assessments were also performed. 160 μL of platelet membranes diluted to 30 μg/mL were added to the assay plate for a final volume of 200 μL/well. Assay plates were incubated at 37° C. for at least one hour with termination of incubation by filtering onto GF/B glass fiber plates (Perkin Elmer; cat #6005177) pre-soaked in 0.1% PEI in saline for 60 minutes. Assay plates were rinsed five to six times with ice cold buffer 4 (50 mM Tris Base, 1.4 mM MgCl2, pH 7.4, 4° C.) on a Perkin Elmer Filtermate 196. Plates were then dried, the bottoms sealed, and 50 μL of MicroScint 20 (Perkin Elmer cat #6013621) was added to each well. After sealing the tops, the plates were allowed to equilibrate for at least 30 minutes and the captured radioactivity was counted on a Perkin Elmer TopCount NTX.

TSPO [5] = target: T1, TSPO; assay: biochemical; remark: listed apart in the source
Protocol: as §3, §4

TSPO [6] = target: T2, TSPO; assay: biochemical; remark: listed apart in the source
Protocol: as §3, §4

TSPO [7] = settings: in vitro assay; LABs compared with HABs; cited from earlier work
TSPO [8] = settings: compared with [11C]PBR28; cited from earlier work

T1 sequence (P30536 2-169 T147A): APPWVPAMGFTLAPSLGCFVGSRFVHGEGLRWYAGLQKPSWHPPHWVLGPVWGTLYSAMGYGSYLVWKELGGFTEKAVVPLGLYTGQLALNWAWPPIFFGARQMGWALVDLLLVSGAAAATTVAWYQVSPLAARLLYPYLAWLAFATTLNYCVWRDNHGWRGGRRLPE
T2 sequence (P30536 2-169): as the sequence (P30536 2-169 T147A) above, with A146T counted along it

Ki (TSPO [5]) | Ki (TSPO [6]) | Structure (SMILES) | Low:High affinity ratio (TSPO [4]) | also measured
– | – | CCN(CC)C(=O)C1Sc2ccccc2-c2c1c1c(OC)cccc1n2CCF (racemic) [Compound 1, N,N-diethyl-11-(2-fluoroethyl)-7-methoxy-6,11-dihydrothiochromeno[4,3-b]indole-6-carboxamide] | – | Ki (TSPO [1]): 0.05 nM; Ki (TSPO [2]): 0.51 nM; Low:High affinity ratio (TSPO [3]): 9.87
– | – | CCN(CC)C(=O)[C@H]1CCCc2c1c1c(OC)cccc1n2CCF (stereo in doubt) [GE180, 9-(2-Fluoro-ethyl)-5-methoxy-2,3,4,9-tetrahydro-1H-carbazole-4-carboxylic acid diethylamide] | 3 | Low:High affinity ratio (TSPO [3]): 15.44
15 nM | 31 nM | CCN(CC)C(=O)[C@@H]1Sc2ccccc2-c2c1c1ccc(OC)cc1n2CCF [Compound 1 E1] | 2 | –
3 nM | 4 nM | CCN(CC)C(=O)[C@H]1Sc2ccccc2-c2c1c1ccc(OC)cc1n2CC[18F] [Compound 1 E2] | 1 | –
4 nM | 117 nM | COc1ccccc1CN(C(C)=O)c1cnccc1Oc1ccccc1 [PBR28, N-(2-methoxybenzyl)-N-(4-phenoxypyridin-3-yl)acetamide] | 28 | –
– | – | COc1ccccc1CN(C(C)=O)c1cnccc1Oc1ccccc1 [[^3H]PBR28] | – | lower TSPO affinity in LABs than in HABs (TSPO [7]): more than 10 fold
– | – | CCC(C)N(C)C(=O)c1cc2ccccc2c(-c2ccccc2Cl)n1 (stereo not shown) [[^11C]PK11195] | – | in vivo specific binding in monkey brain, lower than that reported for [11C]PBR28 (TSPO [8]): ~80 fold
